Laboratory results as given in PMC8071193, “Dual-Target Compounds against Type 2 Diabetes Mellitus: Proof of Concept for Sodium Dependent Glucose Transporter (SGLT) and Glycogen Phosphorylase (GP) Inhibitors” (Pharmaceuticals, 2021).
Read-outs that look alike come from different tables or passages of the source.

Legend:
SGLT1 = target: T1, SGLT1 (Homo sapiens, UniProt P13866); experiment: SGLT1 inhibition, 2-NBDG glucose uptake in SGLT1-overexpressing TSA201 cells; type: cell-based
T1 construct: host or cells: TSA201 (Human Embryonal Kidney) cells, lentiviral transduction, puromycin selection
T1 sequence (P13866 1-664): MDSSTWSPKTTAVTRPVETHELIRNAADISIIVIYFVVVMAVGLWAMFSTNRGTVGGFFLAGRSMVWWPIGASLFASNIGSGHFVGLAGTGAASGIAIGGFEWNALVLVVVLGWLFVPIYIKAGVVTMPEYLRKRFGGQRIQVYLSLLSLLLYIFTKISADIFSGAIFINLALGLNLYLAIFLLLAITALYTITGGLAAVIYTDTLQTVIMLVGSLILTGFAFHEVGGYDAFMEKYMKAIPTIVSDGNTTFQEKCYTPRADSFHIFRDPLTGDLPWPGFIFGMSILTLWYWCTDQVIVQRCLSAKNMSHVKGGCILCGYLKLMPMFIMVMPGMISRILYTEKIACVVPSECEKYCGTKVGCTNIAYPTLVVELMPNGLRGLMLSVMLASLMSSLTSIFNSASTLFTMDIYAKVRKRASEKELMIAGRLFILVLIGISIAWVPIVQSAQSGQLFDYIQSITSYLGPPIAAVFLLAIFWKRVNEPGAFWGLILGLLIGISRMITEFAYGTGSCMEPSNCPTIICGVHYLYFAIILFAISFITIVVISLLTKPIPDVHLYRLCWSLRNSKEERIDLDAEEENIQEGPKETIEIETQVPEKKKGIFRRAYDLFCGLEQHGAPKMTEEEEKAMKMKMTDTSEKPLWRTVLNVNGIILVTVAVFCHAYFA
Description: (§1) Cells (100,000 cells, TSA201) were plated into each well of a 24-well plate and incubated overnight at 37 °C. […] Two wells were treated only with hexadimetrine bromide as a control. After 24 h of transfection, the medium was changed to fresh medium without antibiotics. Cells were collected and transferred into T-25 flasks after 3 days. On the fifth day, 10 µg/mL puromycin was added to select only the transfected cells. The nontransfected cells cannot survive this high concentration of antibiotic. To keep up the selection, the medium including 10 µg/mL puromycin was replaced every two days. The cells lived under puromycin pressure until the day of the experiments.
(§2) TSA201 cells (25,000) with and without overexpressed SGLT1 or 2 were put into poly-L-lysine (P5999, Sigma-Aldrich, St. Luis, MO, USA) treated wells of a 96-well plate. The next day, the cells were starved for 1 h with 90 µL glucose-free medium (D5036-10X1L Sigma-Aldrich, St. Luis, MO, USA) (with or without inhibitor). After starving, cells were treated with 100 µM 2-NBDG and incubated for 30 min (again with or without inhibitor). The incubation time of cells with possible inhibitors was 90 min altogether. After incubation, the medium was removed, the wells were washed with PBS twice, lysed with 100 µL lysis buffer (0.1 M KH2PO4 + 1% Triton-x, pH = 11), and stored at -20°C. […] Subsequently, the protein concentration was measured and NBDG uptake was normalized to protein amount.
(§3) After selecting optimal concentrations, each compound was tested at four different concentrations. […] To determine the specific effects of the compounds on SGLT1 or 2, the glucose uptake values in TSA201 cells without SGLT overexpression were subtracted from the values in TSA201 cell overexpressing SGLT. […] All calculations were prepared using the GraphPad Prism software (GraphPad Software, Inc., SanDiego, CA, USA). The data were plotted on a logarithmic scale as a function of inhibitor concentration. The IC50 values were calculated by non-linear regression analysis from sigmoidal dose-response curves. The results of kinetic experiments were calculated from at least three independent experiments. Each experiment contained four parallel samples that were averaged. The standard deviations were calculated based on the average values for the independent experiments.

SGLT2 = target: T2, SGLT2 (Homo sapiens, UniProt P31639); experiment: SGLT2 inhibition, 2-NBDG glucose uptake in SGLT2-overexpressing TSA201 cells; type: cell-based; conditions: for SGLT2 inhibition (in words): TSA201 cells, up to 1000 µM
T2 construct: host or cells: TSA201 (Human Embryonal Kidney) cells, lentiviral transduction, puromycin selection
T2 sequence (P31639 1-672): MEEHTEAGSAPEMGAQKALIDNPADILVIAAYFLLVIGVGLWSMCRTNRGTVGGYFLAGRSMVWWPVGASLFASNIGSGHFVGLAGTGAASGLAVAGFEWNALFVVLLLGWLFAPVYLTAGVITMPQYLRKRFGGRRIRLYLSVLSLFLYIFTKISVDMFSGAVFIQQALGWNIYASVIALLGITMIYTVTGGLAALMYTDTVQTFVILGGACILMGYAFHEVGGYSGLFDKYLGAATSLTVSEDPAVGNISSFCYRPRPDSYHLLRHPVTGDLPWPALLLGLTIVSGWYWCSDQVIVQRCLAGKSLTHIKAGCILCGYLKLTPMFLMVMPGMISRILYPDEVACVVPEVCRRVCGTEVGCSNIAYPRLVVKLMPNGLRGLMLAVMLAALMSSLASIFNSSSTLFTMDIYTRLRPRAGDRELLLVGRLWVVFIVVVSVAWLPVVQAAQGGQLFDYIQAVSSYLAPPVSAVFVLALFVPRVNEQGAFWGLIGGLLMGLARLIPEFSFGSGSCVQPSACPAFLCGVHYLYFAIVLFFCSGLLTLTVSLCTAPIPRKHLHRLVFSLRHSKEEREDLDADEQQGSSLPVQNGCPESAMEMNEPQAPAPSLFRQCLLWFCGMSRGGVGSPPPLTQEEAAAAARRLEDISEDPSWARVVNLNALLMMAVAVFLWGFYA
Description: as §1, §2, §3

[1] = target: T3, rabbit muscle glycogen phosphorylase b (rmGPb) (Oryctolagus cuniculus, UniProt P00489); experiment: Glycogen phosphorylase b enzyme kinetic inhibition assay (direction of glycogen synthesis); type: biochemical; conditions: Table 2; NI: no inhibition at 625 µM
T3 construct: Glycogen phosphorylase b was isolated from rabbit skeletal muscle; from tissue; host or cells: rabbit skeletal muscle
T3 sequence (P00489 1-843): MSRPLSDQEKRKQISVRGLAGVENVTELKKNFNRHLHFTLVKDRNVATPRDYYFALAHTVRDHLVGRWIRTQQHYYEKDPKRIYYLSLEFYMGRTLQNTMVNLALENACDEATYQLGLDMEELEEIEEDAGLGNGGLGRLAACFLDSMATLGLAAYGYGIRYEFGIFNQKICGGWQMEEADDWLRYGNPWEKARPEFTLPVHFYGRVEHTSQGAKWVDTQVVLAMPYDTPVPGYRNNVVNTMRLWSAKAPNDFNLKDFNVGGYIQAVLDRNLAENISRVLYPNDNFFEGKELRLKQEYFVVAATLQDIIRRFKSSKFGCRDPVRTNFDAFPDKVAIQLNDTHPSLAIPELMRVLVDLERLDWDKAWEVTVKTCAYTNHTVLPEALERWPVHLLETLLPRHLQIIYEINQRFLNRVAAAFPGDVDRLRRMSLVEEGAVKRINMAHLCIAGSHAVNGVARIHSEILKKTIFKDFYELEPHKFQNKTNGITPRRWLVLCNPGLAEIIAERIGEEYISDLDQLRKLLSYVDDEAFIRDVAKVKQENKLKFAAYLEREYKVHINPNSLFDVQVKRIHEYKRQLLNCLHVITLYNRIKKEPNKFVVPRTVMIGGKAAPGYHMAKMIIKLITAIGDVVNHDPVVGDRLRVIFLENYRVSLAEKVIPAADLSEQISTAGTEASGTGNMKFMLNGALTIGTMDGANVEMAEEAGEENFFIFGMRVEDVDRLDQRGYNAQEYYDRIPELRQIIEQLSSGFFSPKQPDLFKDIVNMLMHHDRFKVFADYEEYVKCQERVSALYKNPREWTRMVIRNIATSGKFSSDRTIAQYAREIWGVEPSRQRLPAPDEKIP
Text: The 2-NBDG (2-deoxy-2-[(7-nitro-2,1,3-benzoxadiazol-4-yl)amino]-D-glucose, cat. 11046) was purchased from Cayman Chemical Company (Ann Arbor, MI, USA). Lentivirus for SLC5A1 and SLC5A2 (NM_000343 for SGLT1, and NM-003041 for SGLT2) were obtained from Origene (Rockville, MD, USA). These expression vectors contain a puromycin resistance gene. […] CyQUANT^TM Cell Proliferation Assay Kit (2036547) was from Invitrogen (Carlsbad, CA, USA). Glycogen phosphorylase b was isolated from rabbit skeletal muscle according to the method of Fischer and Krebs.
Enzyme activity in the direction of glycogen synthesis was assayed. Kinetic data were collected using the muscle phosphorylase b (dephosphorylated, GPb) isoform. […] Enzymatic activities were presented in the form of a double-reciprocal plot (Lineweaver-Burk). The plots were analysed by a non-linear data analysis program. The inhibitor constants (Ki) were determined by secondary plots, replotting the slopes from the Lineweaver-Burk plot against the inhibitor concentrations. The means of standard errors for all calculated kinetic parameters averaged to less than 10% [78, 79].

[2] = Table 2, TSA-201 cells, NI: no inhibition at 1000 µM, compounds 1-2 used as controls for in-house assay

Question: Which IC50 (SGLT1) does the source give for `OC[C@H]1O[C@@H](c2noc(Cc3ccccc3)n2)[C@H](O)[C@@H](O)[C@@H]1O` [10a, 5-Benzyl-3-(β-D-glucopyranosyl)-1,2,4-oxadiazole] here?
Answer: Its IC50 is 20.7 ± 7.66 µM.

Question: What about the IC50 (SGLT2) of the same molecule?
Answer: The IC50 was 3.68 ± 0.59 µM.

Question: What about the “SGLT2 inhibition (in words)” value (SGLT2) of the same molecule?
Answer: The value was “showed inhibitory effects”.

Question: What about the IC50 [1] of the same molecule?
Answer: Its IC50 is greater than 625 µM.

Question: `COc1ccc(Cc2nc([C@@H]3O[C@H](CO)[C@@H](O)[C@H](O)[C@H]3O)no2)cc1` [10b, 3-(β-D-Glucopyranosyl)-5-(4-methoxybenzyl)-1,2,4-oxadiazole] was tested. Which IC50 (SGLT1; [2]) did it give?
Answer: The IC50 was greater than 1000 µM.

Question: And the “SGLT2 inhibition (in words)” value (SGLT2)?
Answer: Its value is “complete loss of the inhibition”.

Question: What about the IC50 (SGLT2; [2]) of the same molecule?
Answer: The IC50 was greater than 1000 µM.

Question: And the IC50 [1]?
Answer: Its IC50 is greater than 625 µM.

Question: Which results are given for `OC[C@H]1O[C@@H](c2noc(Cc3ccc(Cl)cc3)n2)[C@H](O)[C@@H](O)[C@@H]1O` [10c, 5-(4-Chlorobenzyl)-3-(β-D-glucopyranosyl)-1,2,4-oxadiazole]?
Answer: IC50 (SGLT1; [2]): > 1000 µM; SGLT2 inhibition (in words) (SGLT2): complete loss of the inhibition; IC50 (SGLT2; [2]): > 1000 µM; IC50 [1]: > 625 µM

Question: Which results are given for `OC[C@H]1O[C@@H](c2nnc(Cc3ccccc3)o2)[C@H](O)[C@@H](O)[C@@H]1O` [13a, 5-Benzyl-2-(β-D-glucopyranosyl)-1,3,4-oxadiazole]?
Answer: IC50 (SGLT1): 23.7 ± 6.14 µM; IC50 (SGLT2): 2.21 ± 0.58 µM; SGLT2 inhibition (in words) (SGLT2): showed inhibitory effects; IC50 [1]: > 625 µM

Question: What does the source list for `COc1ccc(Cc2nnc([C@@H]3O[C@H](CO)[C@@H](O)[C@H](O)[C@H]3O)o2)cc1` [13b, 2-(β-D-Glucopyranosyl)-5-(4-methoxybenzyl)-1,3,4-oxadiazole]?
Answer: IC50 (SGLT1; [2]): > 1000 µM; SGLT2 inhibition (in words) (SGLT2): complete loss of the inhibition; IC50 (SGLT2; [2]): > 1000 µM; IC50 [1]: > 625 µM

Question: `OC[C@H]1O[C@@H](c2nnc(Cc3ccc(Cl)cc3)o2)[C@H](O)[C@@H](O)[C@@H]1O` [13c, 5-(4-Chlorobenzyl)-2-(β-D-glucopyranosyl)-1,3,4-oxadiazole] was tested. Which IC50 (SGLT1; [2]) did it give?
Answer: The IC50 was greater than 1000 µM.

Question: And the “SGLT2 inhibition (in words)” value (SGLT2)?
Answer: The value was “complete loss of the inhibition”.

Question: What about the IC50 (SGLT2; [2]) of the same molecule?
Answer: Its IC50 is greater than 1000 µM.

Question: And the IC50 [1]?
Answer: Its IC50 is greater than 625 µM.

Question: For `OC[C@H]1O[C@@H](c2nccc(Cc3ccccc3)n2)[C@H](O)[C@@H](O)[C@@H]1O` [16a, 4-Benzyl-2-(β-D-glucopyranosyl)pyrimidine], which IC50 (SGLT1) is on record?
Answer: The IC50 was 18 ± 3.92 µM.

Question: What about the IC50 (SGLT2) of the same molecule?
Answer: The IC50 was 17 ± 3.16 µM.

Question: What about the “SGLT2 inhibition (in words)” value (SGLT2) of the same molecule?
Answer: Its value is “inhibitory activity in the micromolar range”.

Question: And the IC50 [1]?
Answer: The IC50 was greater than 625 µM.

Question: With `COc1ccc(Cc2ccnc([C@@H]3O[C@H](CO)[C@@H](O)[C@H](O)[C@H]3O)n2)cc1` [16b, 2-(β-D-Glucopyranosyl)-4-(4-methoxybenzyl)pyrimidine] as the molecule, how does the IC50 (SGLT1; [2]) read?
Answer: Its IC50 is greater than 1000 µM.

Question: And the IC50 (SGLT2)?
Answer: Its IC50 is 11.6 ± 3.19 µM.

Question: And the “SGLT2 inhibition (in words)” value (SGLT2)?
Answer: Its value is “inhibitory activity in the micromolar range”.

Question: What about the IC50 [1] of the same molecule?
Answer: The IC50 was greater than 625 µM.

Question: With `OC[C@H]1O[C@@H](c2nccc(Cc3ccc(Cl)cc3)n2)[C@H](O)[C@@H](O)[C@@H]1O` [16c, 4-(4-Chlorobenzyl)-2-(β-D-glucopyranosyl)pyrimidine] as the molecule, how does the IC50 (SGLT1; [2]) read?
Answer: The IC50 was greater than 1000 µM.

Question: What about the “SGLT2 inhibition (in words)” value (SGLT2) of the same molecule?
Answer: The value was “inactive”.

Question: What about the IC50 (SGLT2; [2]) of the same molecule?
Answer: The IC50 was greater than 1000 µM.

Question: And the IC50 [1]?
Answer: Its IC50 is greater than 625 µM.

Question: For `OC[C@H]1O[C@@H](c2nccc(Cc3ccc4ccccc4c3)n2)[C@H](O)[C@@H](O)[C@@H]1O` [16d, 2-(β-D-Glucopyranosyl)-4-(2-naphthylmethyl)pyrimidine], which IC50 (SGLT1; [2]) is on record?
Answer: Its IC50 is greater than 1000 µM.

Question: What about the “SGLT2 inhibition (in words)” value (SGLT2) of the same molecule?
Answer: Its value is “non-inhibitory”.

Question: And the IC50 (SGLT2; [2])?
Answer: The IC50 was greater than 1000 µM.

Question: And the IC50 [1]?
Answer: The IC50 was greater than 625 µM.

Question: For `OC[C@H]1O[C@@H](c2nc(Cc3ccccc3)n[nH]2)[C@H](O)[C@@H](O)[C@@H]1O` [19a], which IC50 (SGLT1) is on record?
Answer: Its IC50 is 19.6 ± 7.26 µM.

Question: And the IC50 (SGLT2)?
Answer: Its IC50 is 71.7 ± 10.6 µM.

Question: And the “fold weakening in the SGLT2 inhibition” value (SGLT2; 19a vs. 10a and 13a)?
Answer: Its value is 20-30 fold.

Question: And the IC50 [1]?
Answer: Its IC50 is greater than 625 µM.
